From patent US12071434B2, “Heterocyclic compound” (Takeda Pharmaceutical Company Limited, priority 2018, dated 2024)

What follows are compounds tested against T1, human orexin type 2 receptor (Homo sapiens, UniProt O43614) (assay: Measurement of orexin type 2 receptor agonist activity (calcium fluorescence, Fluo-4 AM, FDSS) in CHO cells forcibly expressing human OX2 receptor). Conditions: test compound 3 μM, DMSO = 0%, orexin A (human) 10 nM = 100%.
T1 construct: expressed in transfected cells
T1 sequence (O43614 1-444): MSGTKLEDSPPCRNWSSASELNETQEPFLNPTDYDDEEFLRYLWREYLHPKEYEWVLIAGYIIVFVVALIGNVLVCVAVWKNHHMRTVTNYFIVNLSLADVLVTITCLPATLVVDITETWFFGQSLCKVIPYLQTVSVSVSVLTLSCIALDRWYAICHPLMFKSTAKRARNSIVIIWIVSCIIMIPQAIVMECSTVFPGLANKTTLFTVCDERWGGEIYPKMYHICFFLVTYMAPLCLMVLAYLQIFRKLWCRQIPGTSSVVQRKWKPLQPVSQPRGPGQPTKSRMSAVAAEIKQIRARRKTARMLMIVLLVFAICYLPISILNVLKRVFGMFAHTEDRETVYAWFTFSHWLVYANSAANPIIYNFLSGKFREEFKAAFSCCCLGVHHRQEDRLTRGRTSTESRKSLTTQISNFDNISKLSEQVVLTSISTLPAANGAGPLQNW
Type: cell-based
How it was run: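 CHO-dhfr cells stably expressing human OX2 receptor, loaded with Fluo-4 AM plus probenecid for 30 min at 37 °C, then 30 min at room temperature. Calcium fluorescence read for about 2 min 40 s after compound addition. Activity (%) scaled between DMSO (0%) and 10 nM human orexin A (100%).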
In the case of `CC(C)n1cnc2c(c1=O)[C@@H](Cc1cccc(-c3ccccc3)c1)[C@@H](NS(=O)(=O)C1(F)CC1)CC2` (racemic) [Example 146, rac-N-[(5R,6S)-5-[([1,1′-biphenyl]-3-yl)methyl]-4-oxo-3-(propan-2-yl)-3,4,5,6,7,8-hexahydroquinazolin-6-yl]-1-fluorocyclopropane-1-sulfonamide], the “0X2R agonist activity (3 μM, %)” value is reported as 96%. For `CCn1ccc2c(c1=O)[C@@H](Cc1cccc(-c3ccccc3)c1)[C@@H](NS(C)(=O)=O)CC2` (racemic) [Example 47, rac-N-{(7S,8R)-8-[([1,1′-biphenyl]-3-yl)methyl]-2-ethyl-1-oxo-1,2,5,6,7,8-hexahydroisoquinolin-7-yl}methanesulfonamide], the “0X2R agonist activity (3 μM, %)” value was 96%. In the case of `CC(C)n1cnc2c(c1=O)[C@@H](Cc1cccc(-c3cccc(F)c3F)c1)[C@@H](NS(=O)(=O)C1CC1)CC2` [Example 193, N-[(5R,6S)-5-[(2′,3′-difluoro[1,1′-biphenyl]-3-yl)methyl]-4-oxo-3-(propan-2-yl)-3,4,5,6,7,8-hexahydroquinazolin-6-yl]cyclopropanesulfonamide], the “0X2R agonist activity (3 μM, %)” value is reported as 97%. For `CC(C)n1cnc2c(c1=O)[C@@H](Cc1cccc(-c3ccccc3)c1)[C@@H](NS(=O)(=O)C1CC1)CC2` (racemic) [Example 134, rac-N-[(5R,6S)-5-[([1,1′-biphenyl]-3-yl)methyl]-4-oxo-3-(propan-2-yl)-3,4,5,6,7,8-hexahydroquinazolin-6-yl]cyclopropanesulfonamide], the “0X2R agonist activity (3 μM, %)” value was 111%. `CCS(=O)(=O)NC1CCc2ccc(C)c(=O)n2C1Cc1cccc(-c2ccccc2)c1` (racemic) [Example 11, rac-N-{(3S,4S)-4-[([(1,1′-biphenyl]-3-yl)methyl]-7-methyl-6-oxo-1,3,4,6-tetrahydro-2H-quinolizin-3-yl}ethanesulfonamide] was tested, and the “0X2R agonist activity (3 μM, %)” value was 106%. In the case of `Cc1ccc2n(c1=O)[C@@H](Cc1csc(-c3cccc(F)c3)n1)[C@@H](NS(C)(=O)=O)CC2` (racemic) [Example 64, rac-N-[(3S,4S)-4-{[2-(3-fluorophenyl)-1,3-thiazol-4-yl]methyl}-7-methyl-6-oxo-1,3,4,6-tetrahydro-2H-quinolizin-3-yl]methanesulfonamide], the “0X2R agonist activity (3 μM, %)” value is reported as 100%. `Cc1ccc2n(c1=O)[C@@H](Cc1cccc(-c3ccccc3)c1)[C@@H](NS(C)(=O)=O)CC2` (relative stereo) [Example 10, rel-N-{(3S,4S)-4-[([1,1′-biphenyl]-3-yl)methyl]-7-methyl-6-oxo-1,3,4,6-tetrahydro-2H-quinolizin-3-yl}methanesulfonamide] was tested, and the “0X2R agonist activity (3 μM, %)” value was 101%. For `CCS(=O)(=O)N[C@H]1CCc2ncn(C(C)C)c(=O)c2[C@H]1Cc1cccc(-c2cccc(F)c2)c1` (racemic) [Example 81, rac-N-[(5R,6S)-5-[(3′-fluoro[1,1′-biphenyl]-3-yl)methyl]-4-oxo-3-(propan-2-yl)-3,4,5,6,7,8-hexahydroquinazolin-6-yl]ethanesulfonamide], the “0X2R agonist activity (3 μM, %)” value was 96%. With `CC(C)n1cnc2c(c1=O)[C@@H](Cc1cccc(-c3cc(F)cc(F)c3)c1)[C@@H](NS(C)(=O)=O)CC2` (racemic) [Example 67, rac-N-[(5R,6S)-5-[(3′,5′-difluoro[1,1′-biphenyl]-3-yl)methyl]-4-oxo-3-(propan-2-yl)-3,4,5,6,7,8-hexahydroquinazolin-6-yl]methanesulfonamide] the “0X2R agonist activity (3 μM, %)” value was 105%. For `CC(C)n1cnc2c(c1=O)[C@@H](Cc1cccc(-c3cccc(F)c3F)c1F)[C@@H](NS(=O)(=O)CF)CC2` [Example 196, 1-fluoro-N-{(5R,6S)-4-oxo-3-(propan-2-yl)-5-[(2,2′,3′-trifluoro[1,1′-biphenyl]-3-yl)methyl]-3,4,5,6,7,8-hexahydroquinazolin-6-yl}methanesulfonamide], the “0X2R agonist activity (3 μM, %)” value was 91%. For `CCn1ccc2c(c1=O)[C@@H](Cc1cccc(-c3cccc(F)c3F)c1)[C@@H](NS(C)(=O)=O)CC2` (racemic) [Example 124, rac-N-{(7S,8R)-8-[(2′,3′-difluoro[1,1′-biphenyl]-3-yl)methyl]-2-ethyl-1-oxo-1,2,5,6,7,8-hexahydroisoquinolin-7-yl}methanesulfonamide], the “0X2R agonist activity (3 μM, %)” value was 105%. With `Cc1ccc2n(c1=O)[C@@H](Cc1cccc(-c3cccc(F)c3)n1)[C@@H](NS(C)(=O)=O)CC2` (racemic) [Example 59, rac-N-[(3S,4S)-4-{[6-(3-fluorophenyl)pyridin-2-yl]methyl}-7-methyl-6-oxo-1,3,4,6-tetrahydro-2H-quinolizin-3-yl]methanesulfonamide] the “0X2R agonist activity (3 μM, %)” value was 86%. For `CCn1ccc2c(c1=O)[C@@H](Cc1cccc(-c3cccc(C)c3)c1F)[C@@H](NS(C)(=O)=O)CC2` (racemic) [Example 93, rac-N-{(7S,8R)-2-ethyl-8-[(2-fluoro-3′-methyl[1,1′-biphenyl]-3-yl)methyl]-1-oxo-1,2,5,6,7,8-hexahydroisoquinolin-7-yl}methanesulfonamide], the “0X2R agonist activity (3 μM, %)” value was 101%. `[2H]C([2H])([2H])C([2H])(n1cnc2c(c1=O)C(Cc1cccc(-c3ccccc3)c1F)C(NS(=O)(=O)C1(F)CC1)CC2)C([2H])([2H])[2H]` [Example 213, rel-1-fluoro-N-{(5S,6R)-5-[(2-fluoro[1,1′-biphenyl]-3-yl)methyl]-4-oxo-3-[(~2~H_7_)propan-2-yl]-3,4,5,6,7,8-hexahydroquinazolin-6-yl}cyclopropane-1-sulfonamide] was tested, and the “0X2R agonist activity (3 μM, %)” value was 105%. `CC(C)n1cnc2c(c1=O)[C@@H](Cc1csc(-c3cccc(F)c3F)n1)[C@@H](NS(C)(=O)=O)CC2` (relative stereo) [Example 154, rel-N-[(5R,6S)-5-{[2-(2,3-difluorophenyl)-1,3-thiazol-4-yl]methyl}-4-oxo-3-(propan-2-yl)-3,4,5,6,7,8-hexahydroquinazolin-6-yl]methanesulfonamide] was tested, and the “0X2R agonist activity (3 μM, %)” value was 100%. For `CS(=O)(=O)N[C@H]1CCc2ccc(C3CC3)c(=O)n2[C@H]1Cc1cccc(-c2ccccc2)c1` (racemic) [Example 22, rac-N-{(3S,4S)-4-[([1,1′-biphenyl]-3-yl)methyl]-7-cyclopropyl-6-oxo-1,3,4,6-tetrahydro-2H-quinolizin-3-yl}methanesulfonamide], the “0X2R agonist activity (3 μM, %)” value was 106%. For `CS(=O)(=O)N[C@H]1CCc2ncn(CC3CC3)c(=O)c2[C@H]1Cc1cccc(-c2ccccc2)c1` (racemic) [Example 103, rac-N-[(5R,6S)-5-[([1,1′-biphenyl]-3-yl)methyl]-3-(cyclopropylmethyl)-4-oxo-3,4,5,6,7,8-hexahydroquinazolin-6-yl]methanesulfonamide], the “0X2R agonist activity (3 μM, %)” value was 79%. In the case of `Cc1n[nH]c(=O)c2c1CC[C@H](NS(C)(=O)=O)[C@@H]2Cc1cccc(-c2ccccc2)c1` (racemic) [Example 138, rac-N-{(5R,6S)-5-[([1,1′-biphenyl]-3-yl)methyl]-1-methyl-4-oxo-3,4,5,6,7,8-hexahydrophthalazin-6-yl}methanesulfonamide], the “0X2R agonist activity (3 μM, %)” value is reported as 44%. With `CC(C)n1cc2n(c1=O)[C@@H](Cc1cccc(-c3ccccc3)c1)[C@@H](NS(C)(=O)=O)CC2` (racemic) [Example 203, rac-N-[(5S,6S)-5-[([1,1′-biphenyl]-3-yl)methyl]-3-oxo-2-(propan-2-yl)-2,3,5,6,7,8-hexahydroimidazo[1,5-a]pyridin-6-yl]methanesulfonamide] the “0X2R agonist activity (3 μM, %)” value was 86%. `COc1ccc2n(c1=O)[C@@H](Cc1cccc(-c3ccccc3)c1)[C@@H](NS(C)(=O)=O)CC2` (racemic) [Example 34, rac-N-{(3S,4S)-4-[([1,1′-biphenyl]-3-yl)methyl]-7-methoxy-6-oxo-1,3,4,6-tetrahydro-2H-quinolizin-3-yl}methanesulfonamide] was tested, and the “0X2R agonist activity (3 μM, %)” value was 105%. With `CC(C)n1cnc2c(c1=O)[C@@H](Cc1csc(-c3ccccc3F)n1)[C@@H](NS(C)(=O)=O)CC2` (relative stereo) [Example 155, rel-N-[(5R,6S)-5-{[2-(2-fluorophenyl)-1,3-thiazol-4-yl]methyl}-4-oxo-3-(propan-2-yl)-3,4,5,6,7,8-hexahydroquinazolin-6-yl]methanesulfonamide] the “0X2R agonist activity (3 μM, %)” value was 104%. For `CC(C)n1cnc2c(c1=O)C(Cc1cccc(-c3ccccc3)c1)C(NS(C)(=O)=O)C(F)C2` (racemic) [Example 173, rac-N-[(5R,6R)-5-[([1,1′-biphenyl]-3-yl)methyl]-7-fluoro-4-oxo-3-(propan-2-yl)-3,4,5,6,7,8-hexahydroquinazolin-6-yl]methanesulfonamide], the “0X2R agonist activity (3 μM, %)” value was 91%. `Cc1cc2n(c(=O)c1)[C@@H](Cc1cccc(-c3ccccc3)c1)[C@@H](NS(C)(=O)=O)CC2` (racemic) [Example 14, rac-N-{(3S,4S)-4-[([1,1′-biphenyl]-3-yl)methyl]-8-methyl-6-oxo-1,3,4,6-tetrahydro-2H-quinolizin-3-yl}methanesulfonamide] was tested, and the “0X2R agonist activity (3 μM, %)” value was 107%.
